The source of these data is article PMC9681820, “A PDE10A inhibitor CPL500036 is a novel agent modulating striatal function devoid of most neuroleptic side-effects” (Frontiers in Pharmacology, 2022).

pIC50: −log10 of the molar value.

One data set in a line: MTT cytotoxicity assay. Type of data set: cell-based. To be noted: human, n = 3. How it is done:
The cytotoxicity of CPL500036 was evaluated in human non-small-cell lung cancer (NCI-H1299, ATCC® CRL-5803™), human hepatocellular carcinoma (Hep G2 [HEPG2], ATCC® HB-8065™) and human neuroblastoma (SH-SY5Y, ECACC, 94030304) cells using the 3-(4,5-dimethylthiazol-2-yl)-2,5-diphenyltetrazolium bromide (MTT) assay (Invitrogen, Carlsbad, CA, United States). Cells were seeded in an appropriate complete growth medium (following manufacturer recommendations) onto 96-well plates. After overnight incubation (37°C, 5% CO2) the medium was replaced with fresh medium (100 μl/well) containing the desired concentration of CPL500036 (8 nM–60 μM, diluent factor = 3), positive control or vehicle control (1% dimethyl sulfoxide (DMSO)) followed by incubation for 72 h (37°C, 5% CO2). Then, 25 μl of filtered (filter size = 0.22 μm) MTT solution (12 mM) in phosphate-buffered saline (PBS) was added to each well, including blank control (medium without cells) followed by incubation for 2 h (37°C, 5% CO2). After that, formazan crystals were dissolved in DMSO (100 μl/well). The absorbance was measured at 540 nm (A540, substrate wavelength) and 690 nm (A690, reference wavelength) using an automatic microplate reader (Multiskan™ GO; ThermoFisher Scientific). The metabolic activity of cells in the presence of vehicle control (1% DMSO) was considered to be 100%, and we calculated the difference between A540 and A690. IC50 was calculated using Prism 7.05.

Data set [1] addresses T1, M2 muscarinic (human) receptor (Homo sapiens, UniProt P08172).
T1 construct: host or cells: CHO-K1
Put plainly: M2 functional assay, intracellular cAMP (HTRF) in CHO cells, agonist and antagonist mode. Type of data set: cell-based. How it is done:
Binding of CPL500036 was calculated as the percent binding inhibition of a radioactively labeled ligand specific for each target. Enzyme inhibition of CPL500036 was calculated as the percent inhibition of the activity of the control enzyme. “No interaction” was denoted if inhibition ≤ 25% of specific binding of the control. Determination of muscarinic acetylcholine receptor (M2) activity induced by CPL500036 (antagonism and agonism) was undertaken in human recombinant CHO cells by measurement of the intracellular cAMP level according to the service-provider’s protocol. IC50 (concentration causing a half-maximal inhibition of specific binding of the control) or EC50 (concentration causing a half-maximal response of specific binding of the control) and the Hill coefficient were determined by non-linear regression analysis of the competition curves generated with mean replicate values using Hill-equation curve fitting with software developed at Cerep (Celle-Lévescault, France).
Supplementary fig. 1 Assesment of possible allosteric modulation in M2 muscarinic (human) receptor […]
by CPL500036 in CHO cells.
The study was perfomed by Eurofins Cerep (Poitiers, France) according to the service-provider’s protocol. […] Cells were treated for 10 min with CPL500036. cAMP was detected by use of HTRF ( Homogeneous Time Resolved […]

T1 sequence (P08172 whole entry): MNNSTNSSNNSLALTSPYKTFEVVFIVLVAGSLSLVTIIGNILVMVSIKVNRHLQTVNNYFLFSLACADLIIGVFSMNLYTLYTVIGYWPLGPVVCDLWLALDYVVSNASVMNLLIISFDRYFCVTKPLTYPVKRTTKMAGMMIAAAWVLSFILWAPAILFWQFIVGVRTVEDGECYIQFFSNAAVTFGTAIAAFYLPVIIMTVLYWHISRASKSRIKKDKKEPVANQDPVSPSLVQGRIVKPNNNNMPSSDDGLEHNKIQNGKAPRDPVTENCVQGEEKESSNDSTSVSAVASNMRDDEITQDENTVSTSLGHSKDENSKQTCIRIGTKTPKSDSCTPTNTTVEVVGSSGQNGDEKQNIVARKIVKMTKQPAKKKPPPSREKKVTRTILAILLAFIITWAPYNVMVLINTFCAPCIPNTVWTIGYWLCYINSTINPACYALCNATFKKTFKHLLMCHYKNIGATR

For the compound `Cc1ncc(C)n2nc(-c3ccn4cc(-c5ccccc5)nc4n3)nc12` [CPL500036, 7-[5,8-Dimethyl-(1,2,4)triazolo (1,5-a)pyrazin-2-yl]-2-phenylimidazo (1,2-a) pyrimidine], the IC50 at 72 h is more than 60 µM in “MTT cytotoxicity assay” (HepG2 cells, HepG2, 72 h); more than 60 µM in “MTT cytotoxicity assay” (NCI-H1299 cells, H1299, 72 h); more than 60 µM in “MTT cytotoxicity assay” (SH-SY5Y cells). Further, the negative-log IC50 (pIC50) in data set [1] is 5.04. Further, the agonist-like behavior result in data set [1] (agonistic mode, in presence of methoctramine, CHO cells, cAMP) is recorded as “didn’t trigger any agonist-like behavior”.
